# “Also recorded” adds a separate entry of the source.
# How the values were obtained:
# mdx mice = experiment: Chronic treatment of mdx mice (Duchenne muscular dystrophy model); format: in vivo, mouse; details: for tibialis anterior muscle pathology (H&E): SR compounds 30 mg/kg, 8K-NBD 10 mg/kg
# Source text: Mdx mice develop normally at birth, and then undergo a massive myonecrosis starting at three weeks. Treatment of mdx mice with IKK/NF-kB inhibitors effectively reduces inflammation, block necrosis and increase muscle regeneration. Mdx mice were chronically treated with vehicle, SR12343, SR12460 or 8K-NBD starting from day 21, 3 times/week for 4 weeks. […] To determine if SR12343 and SR12460 improve muscle pathology, tibialis anterior (TA) muscle was stained with hematoxylin and eosin (H&E) to assess inflammatory infiltration, necrosis, central nucleation and fibrosis. […] Fiber size in centrally nucleated and non-centrally nucleated myofibers was also smaller in mice treated with SR12343 and 8K-NBD, indicating active reconstruction of myofiber during the regenerative phase.
# To determine muscle strength post-treatment, grip strength test on forelimbs was performed 2 weeks and 4 weeks post-treatment.
# HEK293 cells were grown in Dulbecco's Modification of Eagles Medium (with 4.5 g/L glucose and L-glutamine), supplemented with 10% fetal bovine serum, penicillin and streptomycin. Raw264.7 cells were cultured in RPMI-1640 media containing 10% heat-inactivated fetal bovine serum, penicillin and streptomycin. C57BL/10ScSn-Dmd^mdx/J and female C57BL/6 mice were purchased from the Jackson Laboratory. Mice were housed in the animal facilities of Scripps Fla. under constant temperature and humidity. Animal protocols used in this study were approved by Scripps Fla. Institutional Animal Care and Use Committees. Three week-old sex-matched mdx mice were dosed with SR12343 (30 mg/kg), […] (30 mg/kg), 8K-NBD peptide (10 mg/kg) or vehicle by intraperitoneal (i.p.) injection 3 times per week for 4 weeks. Mice were sacrificed at 7 weeks of age by carbon dioxide inhalation and tibialis anterior was collected for histological analysis.
# Seven week-old treated or untreated mdx mice were measured for forelimb grip strength using a digital grip strength meter paired with a metal grid (Bioseb). Mice were allowed to grip the metal grid tightly and readings were obtained by gently pulling the tail backward until release. Five sequential measurements were performed and the average force was calculated.
# Tissues fixed in 10% neutral buffered formalin (NBF) overnight were imbedded in paraffin. Tissue was sectioned at […] using a microtome. H&E staining was conducted following a standard protocol (REF).
# NF-κB target genes [1] = experiment: LPS-induced systemic endotoxemia / acute lung inflammation, qRT-PCR of NF-κB target genes; format: in vivo, mice; details: 10 mg/kg
# Experimental: SR12343 and SR12460 initially were tested in an acute model of LPS-induced systemic endotoxemia to determine their NF-κB inhibitory effects in vivo. C57BL/6J mice were pretreated with vehicle control, 8K-NBD peptide or NBD mimetics at 10 mg/kg for 30 min, followed by LPS induction at 10 mg/kg. Lung and liver were harvested 2-4 hr post-treatment for qRT-PCR analysis of NF-κB target genes.
# LPS (strain O111:B4) was prepared in PBS at a sub-lethal dose of 10 mg/kg. 8-10 weeks old female WT mice (20-30 g) were dosed i.p. with vehicle, NBD peptide (10 mg/kg) or small molecules (10 mg/kg) for 30 min and followed by i.p. injection of saline (1 ml/kg) or LPS (10 mg/kg). Mice were euthanized 2-4 hr post-treatment and lung was collected for further analysis.
# (§1) Snap frozen tissues were preserved in RNAlater RNA stabilization solution (ThermoFisher) before processed. Total RNA was extracted from cells or tissues using TRIZOL reagent (Life Technologies) and 1500 ng of messenger RNA (mRNA) was subjected to synthesize complementary DNA (cDNA) using SuperScript VILO cDNA synthesis kit. qRT-PCR was performed in a StepOnePlus Real-Time PCR system using Platinum SYBR Green qPCR SuperMix-UDG (ThermoFisher). Target gene expression was calculated using the comparative CT method (ΔΔCT) and normalized to an internal control gene Actb (β-actin). Primers used are as follows: Ptgs2 (COX-2) forward: […]; Ptgs2 (COX-2) reverse: […]; Nfkbia (IκBα) forward: […]; Nfkbia (IκBα) reverse: […]; Il1b (IL-1β) forward: […]; Il1b (IL-1β) reverse: […]; Nos2 (iNOS) forward: […]; Nos2 (iNOS) reverse: […]; Tnf (TNF) forward: […]; Tnf (TNF) reverse: […]; Il6 (IL-6) forward: […]; Il6 (IL-6) reverse: […]. Actb (β-actin) forward: […]; Actb (β-actin) reverse: […];
# NF-κB target genes [2] = experiment: qRT-PCR of NF-κB target genes in LPS-stimulated Raw 264.7 cells; format: cell-based, mouse; details: Raw 264.7, 1 ug/ml LPS 2 hr; mimetics 50 μM, IKKi VII 2 μM, 8K-NBD 400 μM
# Experimental: Effect of the NBD mimetics on expression of NF-kB regulated genes in the Raw mouse macrophage cell line. Treatment of the Raw cells with the indicated drugs prior to addition of LPS reduced NF-kB-mediated gene expression as measured by RT-PCR.
# To determine whether the inhibitory effect of the mimetics is TNF-α-dependent, LPS-mediated NF-κB activation via TLR4 was examined to determine a broader inhibitory effect of the novel NBD mimetics. NF-κB was stimulated in Raw 264.7 by 1 ug/ml of LPS for 2 hr and genes transcriptionally regulated by NF-κB were determined by qRT-PCR analysis. Both an IKK active site inhibitor IKKi VII (2 μM) and the 8K-NBD peptide (400 μM) were included as positive controls and the expression of COX2, IL-6, IL-1β, TNF-α, IκBα and iNOS were assessed.
# Raw 264.7 cells were treated with a 50 μM solution of the SR compound for 30 minutes, and then the mRNA was harvested 2 hours after addition of 1 μg/mL LPS.
# as §1
# IKKβ-NEMO interaction = experiment: Immunoprecipitation of NEMO and IKKβ immunoblot in Raw 264.7 macrophages and HEK293 cells; format: cell-based; details: Raw 264.7 macrophages / HEK293; mimetics 100 μM, 8K-NBD 400 μM
# Experimental: The NBD mimetics reduce the interaction between IKKg (NEMO) and IKKß. The indicated concentrations of the drugs were added to HEK 293 or Raw 264.7 cells and cell extracts prepared 30 minutes later. Following immunoprecipitation (IP) of NEMO, the Western was probed for IKKß.
# After treatment with the mimetics or NBD peptide, NEMO was immunoprecipitated by an anti-NEMO antibody and IKKβ was immunoblotted to determine the binding of IKKβ to NEMO.
# HEK293 or Raw264.7 cells were seeded at 1×10^6 cells/well in 6-well plates and treated with vehicle, small molecule or NBD peptide for indicated time. Cells were lysed in NP-40 lysis buffer supplemented with 1× protease inhibitor cocktails (sigma). Protein was immunoprecipitated by incubating 150 μg of lysate with 1 μg of anti-NEMO antibody (Santa Cruz) on a rotating shaker at 4° C. for 4 hrs, followed by incubation with 20 ul of Protein A agarose beads (ThermoFisher) for 1 hr. Beads were washed in NP40 buffer 3 times and PBS once. Protein was then denatured in SDS-sample buffer and resolved by MINI-PROTEAN TGX 4-15% SDS-PAGE. Anti-IKKβ (1:1000 CST) was used to assess binding of IKKβ to NEMO and anti-NEMO (1:1000 CST) or IgG were used to as a loading control.
Compound,therapeutic benefit of chronic treatment of mdx mice (mdx mice; chronic treatment with the ZINC compounds),"NF-κB target gene expression in lung (iNOS, IκBα, COX2, IL-6) (NF-κB target genes [1]; 30 min before LPS 10 mg/kg, 2-4 hr)",NF-κB target gene expression in liver (NF-κB target genes [1]; LPS 10 mg/kg),TNF-α expression in lung (NF-κB target genes [1]; LPS 10 mg/kg),"transcription of NF-κB target genes (COX2, IL-6, IL-1β, TNF-α, IκBα, iNOS) (NF-κB target genes [2])",forelimb grip strength (mdx mice; 2 weeks post-treatment),expression of eMyHC and Pax 7 in TA muscle (qRT-PCR) (mdx mice; ip 3 times/week for 4 weeks),fiber size in centrally nucleated and non-centrally nucleated myofibers (mdx mice; ip 3 times/week for 4 weeks),tibialis anterior muscle pathology (H&E) (mdx mice; ip 3 times/week for 4 weeks),"disruption of IKKβ-NEMO interaction (NEMO IP, IKKβ blot) (IKKβ-NEMO interaction)",inhibition of NF-κB/IKK in liver and lung (NF-κB target genes [1]; LPS 10 mg/kg)
"Nc1ncccc1C(=O)OCC(=O)Nc1ccc(Cl)cc1F [NBDA-1, 2-((4-chloro-2-fluorophenyl)amino)-2-oxoethyl 2-aminonicotinate]",showed no therapeutic benefit,–,–,–,–,–,–,–,–,–,–
"O=C(CNc1ccc(Cl)cn1)NCCc1cccc(Br)c1 [SR12343, N-(3-bromophenethyl)-2-((5-chloropyridin-2-yl)amino)acetamide]",–,downregulate NF-κB transcriptional activity significantly in lung,inhibiting only COX2 expression significantly,unchanged,"significant inhibition on COX2, IL-6 and iNOS expression",significantly improved forelimb strength after 2 weeks of treatment,increasing expression of eMyHC as well as Pax 7,smaller,most significant pathological improvement,strongest activity; also recorded: disruption of the association between NEMO and IKK-β,–
"O=C(CNCCc1cc(F)cc(F)c1)Nc1ccc(Cl)cn1 [SR12460, N-(5-chloropyridin-2-yl)-2-((3,5-difluorophenethyl)amino)acetamide]",–,–,–,–,significantly downregulate the transcription of all NF-κB target genes tested,–,"increased eMyHC expression, but to a lower extent compared to SR12343",–,partly improved muscle pathology,disruption of the association between NEMO and IKK-β,less potent compared to SR12343
